{"source": "patent US8114619B2", "about": "“Methods for diagnosis and optimizing treatment of multiple sclerosis” (The Johns Hopkins University, priority 2006, dated 2012)", "key": {"[1]": {"tested_on": "rat mixed hippocampal cultures", "experiment": "in vitro neuroprotection assay against 3-NP, MTT viability", "details": "for protection from oxidative damage elicited by 3-NP: preincubated one hour prior to 18 hour exposure to 3 mM 3-NP", "text": "5, 2007. In Tables 5 and 6 “% Protection vs 3-NP” refers to the increase in cultured neuron viability in the presence of the oxidative stressor 3-nitropropionic acid. For details of the assay, see Example 3 below.\n(§1) We sought to evaluate the protective efficacy of a number of modified terpenoid compounds against the against many different neurotoxins, ranging from the chemotoxic 6-OHDA, NMDA, 3-nitropropionic acid (3-NP), and viral proteins such as Tat and gp120. Thus, we established an in vitro neuroprotection assay using rat mixed hippocampal cultures, in which we evaluated the protective efficacy of neuroprotective compounds disclosed herein. The oxidative stressor 3-NP was used to elicit toxicity in the rat hippocampal cultures to mimic the oxidative damage, reactive oxygen species production and ensuing neurodegeneration resulting from HIV infection. Another measure of neurotoxicity which results from HIV infection was evaluated by exposure of the hippocampal cultures to HIV-1 Tat (Li et al (2005), Neurotox Res, 8(1-2):119-134).\n(§2) Rat mixed hippocamal neuronal cultures were generated from freshly dissected rat hippocampi (embryonic day 18) in neurobasal media containing 5% fetal bovine serum and 2% B27 supplement. The cells were plated into 96 well plates at a density of 4×10^5 cells/mL and routinely used on days 11-14 following culturing. Cell viability was assessed with MTT [3-(4,5-dimethylthiazol-2-yl)-2,5-diphenyltetrazolium bromide] assay. The MTT assay is based on the ability of a mitochondrial dehydrogenase enzyme from viable cells to cleave the tetrazolium rings of the pale yellow MTT and form dark blue formazan crystals. See Mosmann (1983), J Immunol Methods, 65(1-2):55-63. These crystals are largely impermeable to cell membranes, and thus accumulate within healthy cells. The resultant formazan precipitates are solubilized with DMSO and read on a multiwell scanning spectrophotometer (ELISA reader). The number of surviving cells is directly proportional to the level of the formazan product created.\nMixed hippocampal cultures were incubated with 3-NP (0.5-10 mM) for 18 hours and then assessed for viability using an MTT assay.\n(§3) Cultures were preincubated with GPI 1046 or Resveratrol for one hour prior to an 18 hour exposure to 3 mM 3-NP. […] The same neuroprotective compounds were evaluated for efficacy against HIV-1 Tat protein toxicity using the same 1 hour preincubation protocol."}, "[2]": {"tested_on": "cystatin C", "experiment": "effect of protease inhibitors on cystatin C cleavage in CSF", "assay_type": "biochemical, human", "details": "control CSF with only full length cystatin C, room temperature 48 hours; FN-439 and pepstatin A 500 ug/ml", "method": "We incubated control CSF which contained only the full length cystatin C at room temperature for 48 hours in the presence of various protease inhibitors and monitored it for the presence of the 12.5 kD fragment."}, "[3]": {"tested_on": "rat mixed hippocampal cultures", "experiment": "neuroprotection against HIV-1 Tat toxicity", "assay_type": "cell-based", "details": "for protection from HIV-1 Tat toxicity: 1 hour preincubation", "text": "as §1, §2, §3"}, "[4]": {"tested_on": "rat neuronal cultures", "experiment": "protection against NMDA excitotoxicity", "assay_type": "cell-based", "text": "as §1\n(§4) Rat mixed hippocamal neuronal cultures were generated from freshly dissected rat hippocampi (embryonic day 18) in neurobasal media containing 5% fetal bovine serum and 2% B27 supplement. The cells were plated into 96 well plates at a density of 4×10^5 cells/mL and routinely used on days 11-14 following culturing. Cell viability was assessed with MTT [3-(4,5-dimethylthiazol-2-yl)-2,5-diphenyltetrazolium bromide] assay. […] The resultant formazan precipitates are solubilized with DMSO and read on a multiwell scanning spectrophotometer (ELISA reader). […]"}, "[5]": {"tested_on": "rat neuronal cultures", "experiment": "protection against 6-OHDA neurotoxicity", "assay_type": "cell-based", "text": "as §1, §4"}, "[6]": {"tested_on": "human fetal neuronal cultures", "experiment": "protection of human fetal neurons against 3-NP", "assay_type": "cell-based", "text": "(§5) Finally, we sought to determine if the compounds tested in rat neuronal cultures would also be effective on cultured human fetal neurons."}, "[7]": {"tested_on": "human fetal neuronal cultures", "experiment": "protection of human fetal neurons against 6-OHDA", "assay_type": "cell-based", "text": "as §5"}, "[8]": {"molecular_target": "T1, cathepsin B (Homo sapiens, UniProt P07858)", "T1 construct": "Cell lysates were prepared using a lysis buffer provided with the assay kit; host or cells: THP-1 cell lysate", "experiment": "cathepsin B functional assay", "assay_type": "biochemical", "details": "for inhibition of cathepsin B activity: untreated recombinant protein, or protease alone; for ability to inhibit cathepsin B after treatment of cystatin C with MMP-2: recombinant cystatin C treated with MMP-2; for cathepsin B activity after treatment of cystatin C with cathepsin D: recombinant cystatin C treated with cathepsin D", "protocol": "The activity of cathepsin B, a substrate of cystatin C, was measured using an activity assay kit (Biovision Research Products, Mountain View, Calif.). This fluorescence-based assay utilizes the cathepsin-B substrate sequence Arg-Arg labeled with amino-4-trifluoromethyl coumarin […]. Cathepsin-B cleaves the synthetic substrate RR-AFC to release free AFC. THP-1 cells (a monocytic cell line) were used as a source of cathepsin B. Cell lysates were prepared using a lysis buffer provided with the assay kit. Cell lysates from 1×10^6 cells were added to 50 μl of CSF in a microtiter plate (q.s. 100 μl). Two μl of substrate Ac-Arg-Arg-AFC was added to each well and incubated for 1 hr at 37° C. Absorbance was measured using a fluorescent plate reader with a 400 nm excitation filter and 505 nm emission filter. Controls included reaction buffer alone and a cathepsin B inhibitor provided in the kit. All samples were analyzed in duplicate.\nRecombinant cystatin C was produced and the ability of MMP-2 and cathepsin D to cleave the recombinant protein was confirmed. As expected, cathepsin D cleaved cystatin C at four different sites, and yielded a 12.5 kD fragment following cleavage from the C terminal region (9). In contrast, MMP-2 cleaved cystatin C at three unique sites (GK, FC, and GT which correspond to amino acids 4,5; 96,97 and 108,109). Recombinant cystatin C was treated with either MMP-2 or cathepsin D and its activity monitored by a cathepsin B functional assay using a kit from Biovision Research Products, Mountain View, Calif. The assay was performed as previously described (4). […] Cathepsin D and MMP-2 alone had no effect on cathepsin B activity (FIG. 9). These observations confirmed that C terminal fragmentation of cystatin C leads to a gain in activity while cleavage in other regions including the N terminal region leads to a loss or decrease of activity of cystatin C."}, "[9]": {"details": "listed as Recombinant cystatin C"}}, "note": "Entries after “also recorded” stand apart in the source; their conditions may differ. Non-standard residues stand in square brackets, D forms with d. Residues, ends and D or L forms follow the SMILES beside them. *: point of attachment. Sta = CC(C)C[C@H](N)[C@@H](O)CC(=O)O; Isovaleryl = CC(C)CC(=O)*; 4Abz = Nc1ccc(C(=O)O)cc1; NHOH = ON*", "data": [{"molecule": "O=C(O)CC[N+](=O)[O-]", "note": "[Compound 3-NP, 3-nitropropionic acid]", "values": [{"measurement": "cytotoxicity", "setting": "[1]; 3 mM 3-NP, 18 hours, MTT assay", "value": "25-35%"}]}, {"molecule": "CC(C)C[C@@H](NC(=O)[C@@H]1CCCN1C(=O)CNC(=O)c1ccc(N)cc1)C(=O)N[C@H](C)C(=O)NO", "note": "[FN-439] (H-[4Abz]GP[dL][dA]-{NHOH})", "values": [{"measurement": "effect on cleavage of cystatin C (12.5 kD fragment)", "setting": "[2]", "value": "showed inhibition of the breakdown of cystatin C"}]}, {"molecule": "CC(=O)O[C@@H]1CC2C(C)(C)C(=O)C=C[C@]2(C)C2CC[C@]3(C)[C@@H](c4ccoc4)OC(=O)[C@H]4O[C@]43[C@@]21C", "note": "(stereo partly drawn) [GEDUNIN]", "values": [{"measurement": "neuroprotection from HIV-1 Tat toxicity at 1-10 μM", "setting": "[3]; 1-10 μM", "value": "nearly complete neuroprotection"}, {"measurement": "protection from HIV-1 Tat toxicity", "setting": "[3]", "value": "dose dependently protected"}]}, {"molecule": "CCC(C)(C)C(=O)C(=O)N1CCC[C@H]1C(=O)OCCCc1cccnc1", "note": "[GPI 1046, reference compound]", "values": [{"measurement": "protection from oxidative damage elicited by 3-NP", "setting": "[1]", "value": "significantly protected"}, {"measurement": "protection from HIV-1 Tat toxicity", "setting": "[3]", "value": "protected hippocampal neurons from Tat toxicity"}]}, {"molecule": "CC1(C)O[C@H]2CC(=O)OC[C@]23[C@H]2CC[C@@]4(C)[C@H](c5ccoc5)OC(=O)[C@H]5O[C@]54[C@]2(C)C(=O)C[C@@H]13", "note": "[Limonin]", "values": [{"measurement": "protection against NMDA at highest dose", "setting": "[4]; 10 μM, highest dose tested", "value": "complete protection"}, {"measurement": "block of NMDA neurotoxicity", "setting": "[4]; dose-dependent", "value": "dose-dependently blocked"}, {"measurement": "protection against 6-OHDA at highest dose", "setting": "[5]; 10 μM, highest dose tested", "value": "complete protection"}, {"measurement": "block of 6-OHDA neurotoxicity", "setting": "[5]; dose-dependent", "value": "dose-dependently blocked"}, {"measurement": "protection from HIV-1 Tat toxicity", "setting": "[3]", "value": "dose dependently protected"}, {"measurement": "protection against 3-NP", "setting": "[6]", "value": "dose-dependently protected"}, {"measurement": "protection against 6-OHDA", "setting": "[7]", "value": "dose-dependently protected"}]}, {"molecule": "C[C@@H]1[C@H](O)[C@@H](C)/C=C/C=C/CC/C=C/C=C/C=C/C=C/C(O[C@H]2O[C@H](C)[C@@H](O)[C@H](N)[C@@H]2O)CC2O[C@](O)(CC(O)C(O)CCC(O)CC(O)CC(O)CC(=O)O[C@H]1C)CC(O)C2C(=O)O", "note": "(stereo partly drawn) [NYSTATIN]", "values": [{"measurement": "% Protection vs 3NP", "setting": "[1]; increase in cultured neuron viability in the presence of 3-nitropropionic acid (Table 6)", "value": 46.72, "unit": "%"}]}, {"molecule": "Oc1ccc(C=Cc2cc(O)cc(O)c2)cc1", "note": "[RESVERATROL, reference compound]", "values": [{"measurement": "protection from oxidative damage elicited by 3-NP", "setting": "[1]", "value": "significantly protected"}, {"measurement": "protection from HIV-1 Tat toxicity", "setting": "[3]", "value": "protected hippocampal neurons from Tat toxicity"}]}, {"molecule": "CC(C)CC(=O)N[C@H](C(=O)N[C@H](C(=O)N[C@@H](CC(C)C)[C@@H](O)CC(=O)N[C@@H](C)C(=O)N[C@@H](CC(C)C)[C@@H](O)CC(=O)O)C(C)C)C(C)C", "note": "[pepstatin A] (Isovaleryl-VV[Sta]A[Sta]-OH)", "values": [{"measurement": "effect on cleavage of cystatin C (12.5 kD fragment)", "setting": "[2]", "value": "showed inhibition of the breakdown of cystatin C; also recorded: significantly prevented cleavage of cystatin C"}]}, {"molecule": "Cathepsin D: protease that cleaves cystatin C from the C terminal region", "values": [{"measurement": "inhibition of cathepsin B activity", "setting": "[8]", "value": "no effect"}]}, {"molecule": "full length cystatin C: recombinant cystatin C, inhibitor of cysteine proteases including cathepsin B (protein) SSPGKPPRLVGGPMDASVEEEGVRRALDFAVGEYNKASNDMYHSRALQVVRARKQIVAGVNYFLDVELGRTTCTKTQPNLDNCPFHDQPHLKRKAFCSFQIYAVPWQGTMTLSKSTCQDA", "values": [{"measurement": "ability to inhibit cathepsin B after treatment of cystatin C with MMP-2", "setting": "[8]; [9]", "value": "inhibition of CysC activity"}, {"measurement": "ability to inhibit cathepsin B after treatment of cystatin C with MMP-2", "setting": "[8]; listed as cystatin C", "value": "decrease in its ability to inhibit cathepsin B activity"}, {"measurement": "cathepsin B activity after treatment of cystatin C with cathepsin D", "setting": "[8]; [9]", "value": "further enhanced"}, {"measurement": "cathepsin B activity after treatment of cystatin C with cathepsin D", "setting": "[8]; listed as cystatin C", "value": "further decrease in cathepsin B activity"}, {"measurement": "inhibition of cathepsin B activity", "setting": "[8]", "value": "significant inhibition"}]}, {"molecule": "MMP-2: matrix metalloprotease that cleaved cystatin C at three sites (protein) YNFFPRKPKWDKNQITYRIIGYTPDLDPETVDDAFARAFQVWSDVTPLRFSRIHDGEADIMINFGRWEHGDGYPFDGKDGLLAHAFAPGTGVGGDSHFDDDELWTLGEGQVVRVKYGNADGEYCKFPFLFNGKEYNSCTDTGRSDGFLWCSTTYNFEKDGKYGFCPHEALFTMGGNAEGQPCKFPFRFQGTSYDSCTTEGRTDGYRWCGTTEDYDRDKKYGFCPETAMSTVGGNSEGAPCVFPFTFLGNKYESCTSAGRSDGKMWCATTANYDDDRKWGFCPDQGYSLFLVAAHEFGHAMGLEHSQDPGALMAPIYTYTKNFRLSQDDIKGIQELYGASPDIDLGTGPTPTLGPVTPEICKQDIVFDGIAQIRGEIFFFKDRFIWRTVTPRDKPMGPLLVATFWPELPEKIDAVYEAPQEEKAVFFAGNEYWIYSASTLERGYPKPLTSLGLPPDVQRVDAAFNWSKNKKTYIFAGDKFWRYNEVKKKMDPGFPKLIADAWNAIPDNLDAVVDLQGGGHSYFFKGAYYLKLENQSLKSVKFGSIKSDWLGC", "values": [{"measurement": "inhibition of cathepsin B activity", "setting": "[8]", "value": "no effect"}]}]}
